Values of other authors in patent US12270126B2, “Wound dressing” (University of Central Oklahoma, priority 2019, dated 2025).

Legend:
[1] = tested on: Methicillin-resistant S. aureus (MRSA)
[2] = tested on: Bacillus subtilis (B. subtilis)

Measured: inhibitory effect on microorganism

Cc1ccc(C(C)C)cc1O [carvacrol]
inhibitory effect: E. coli | [1] | [2] | Saccharomyces cerevisiae

Cc1ccc(C(C)C)c(O)c1 [thymol]
inhibitory effect: E. coli | [1] | [2] | Saccharomyces cerevisiae
